The values that follow come from a melting point compilation (Tetko et al.; mined from patent text by program, amines drawn as free bases though some values may be those of a salt).

A value given as a limit tells only on which side of the number the result lay.

As a reminder, the melting point is the temperature of the solid-liquid transition. Regarding `CC[C@@H](Nc1nc(NCc2ccccc2)c2ncn(C(C)C)c2n1)[C@H](C)O`, the melting point is 42 to 44 °C.
Next, `Cc1ccc(S(=O)(=O)n2c(CCCC(=O)O)cc3nc(Cl)ccc32)c2ccccc12`: 199 to 204 °C; `CNc1nc(-c2cccc3ccccc23)co1`: 164 to 166 °C; `CCSCCCCCCCCCCC(=O)O`: 58 to 61 °C.
The same measure for `COc1ccc(C(=O)CCC(=O)c2ccc3ccccc3c2)cc1OC`: 133 °C.
Next, `CC(C)(C)OC(=O)N1CC(CCl)c2c1cc([N+](=O)[O-])c1ccccc21` (configuration not stated): 168 to 169 °C; `Oc1nccc2ccncc12`: 260 to 262 °C.
Regarding `O=C(O)c1cc(C(=O)O)c(C(O)=NCO)cc1C(O)=NCO`, the melting point amounted to 300 °C.
The same measure for `O=S1(=O)c2sccc2C=C(CO)N1CCO`: 81 to 83 °C; for `CC(C)(C)N(O)CP(=O)(OCc1ccccc1)OCc1ccccc1`: 106 to 107 °C.
`CN1CCN(c2ccc3cn[nH]c3n2)CC1` came in with a melting point of 196 to 197 °C.
The same measure for `CCOC(=O)C1=C(C)NC(C)=C(C(=O)OCC)C1c1ccc(Br)cc1`: 164 to 165 °C.
Consider `COc1cccc(C#N)c1C`, for which the melting point fell in the range of 47 to 48 °C.
In turn, `CC1(C)C=CC=CC1NCC1=NCCN1` (configuration not stated) yielded a melting point of 80 to 82 °C.
`O=C(NCc1ccccc1)c1nn(-c2ccc(Cl)cc2)c2c1C1CCC2C1` (configuration not stated) registered a melting point of 112 to 115 °C.
The same measure for `O=C1CC[C@@H](C(=O)Nc2ccc(-c3ncc(C(=O)O)c(O)n3)cc2)N1`: > 300 °C.
Next, `NC(=O)c1cc2ccccc2[nH]1`: 231 to 232 °C; `COc1ccc(C2(C#Cc3cccc(-c4nnc(C)o4)c3)CCC(=O)CC2)cc1OC1CCCC1`: 139 to 141 °C; `COc1ccc(Br)c(C(=O)N2CCN(S(=O)(=O)c3ccccc3)CC2)c1`: 180 °C.
For `COc1ccc(-c2nc3ncn(C)c(=S)n3n2)cc1`, the melting point was > 300 °C.
Regarding `Nn1cc(C(=O)O)c(=O)c2cc(F)c(Cl)cc21`, the melting point came out at 274 °C.
`CC(C)c1nc2ccccc2c(-c2ccc(F)cc2)c1/C=C/I` displayed a melting point of 129 to 131 °C.
`CC1(C)OC(=O)Nc2ccc(-c3cccc(C#C[Si](C)(C)C)c3)cc21` came in with a melting point of 240 to 242 °C.
The same measure for `CCOc1ccc(Nc2cccc3ccccc23)cc1`: 73 to 75 °C; for `Cc1cc(-c2oncc2CCCO)ccc1Cl`: 50 to 51 °C; for `CCCCC[C@H]1CC[C@H](CCc2ccc(CCC)c(C#N)c2C#N)CC1`: 83.6 °C.
Next, `CN(C)Cc1ccc(C2(O)CCC3(CC2)OCCO3)cc1`: 84 to 86 °C; `COc1cc2ncc(O[C@H]3CC[C@@H](OC(C)=O)CC3)nc2cc1OC`: 150 to 152 °C; `CNC(=O)C(=O)CCCCCON=Cc1ccc(-c2ccccc2)cc1`: 86 to 87 °C.
Next, `COCCCNc1nc(N)c(Cl)c(Cl)n1`: 114 °C; `O=C(O)C1CCCc2c1c1ccccc1n2Cc1ccccc1` (configuration not stated): 212 to 215 °C; `COc1cc(C=CC(=O)OC2CC3CC(OC(=O)Cc4cccc(O)c4)CC2N3C)cc(OC)c1OC` (configuration not stated): 53 to 57 °C.
`CCC1OCc2c1cnc(C)c2O` (configuration not stated) showed a melting point of 172 °C.
With `O=C(CNc1ccc2[nH]ncc2c1)N1CCC(Cc2ccccc2)CC1`, the melting point fell in the range of 42 to 47 °C.
`C=CCCCCCCOc1ccc(CCC(N)(CO)CO)cc1` yielded a melting point of 95 to 98 °C.
Next, `COc1ccc(C2(O)CC=C(c3ccncc3)N(C)C2=O)cc1` (configuration not stated): 224 to 226 °C; `Cc1cccc(-c2n[nH]cc2-c2ccc(F)c(-c3cn4c(n3)S(=O)(=O)CC4)c2)n1`: 134 to 138 °C.
Next, `CC(O)=CC(N)=NC(C)(C)C`: 119 to 125 °C.
`N#CCC(CC#N)c1cccnc1` returned a melting point of 60 to 61 °C.
The same measure for `CCOCc1nc2c(N)nc3ccccc3c2n1CC(C)(C)CS(=O)(=O)NC`: 161 to 163 °C.
Next, `CCCn1c(=O)c2c(nc(/C=C/c3cc(OC(C)=O)cc(OC(C)=O)c3)n2C)n(CCC)c1=O`: 224 to 225 °C; `CCOC(=O)N1C[C@@H]2CC[C@H]1C(=O)C2`: 68.5 to 69.5 °C; `O=C(c1ccc(Br)cc1)c1ccc2cc[nH]c2c1`: 47 to 49 °C.
The same measure for `CCOc1nc(NCc2ccncc2)nc(Nc2ccc3[nH]c(=O)[nH]c3c2)n1`: 210 to 212 °C; for `COc1ccc(-c2c(NC(=O)Nc3ccc(F)cc3F)c(=O)n(C)c3ccc(C)cc23)cc1OC`: 231 to 233 °C.
For the compound `COC(=O)c1cc(Cl)ccc1-n1c(CCl)nc2ccccc2c1=O`, the melting point lay in the range of 135 to 136 °C.
Next, `O=C(Nc1ccc(C(=O)N2Cc3cccn3Cc3ccccc32)cc1)c1cccc(F)c1F`: 252 to 258 °C; `O=c1c2c(c1=O)Nc1c(cc(Cl)c(Cl)c1Cl)N2`: > 360 °C; `COC(=O)[C@H]1C[C@@H](NC(=O)OC(C)(C)C)c2c(Cl)cc(Cl)cc2N1` (relative stereo): 172 to 173 °C.
On to `CCOC(=O)Nc1cc2nc(O)c(O)nc2cc1Cl`, for which the melting point was > 300 °C.
The same measure for `Cc1c(NC(=O)C(CS)CC(C)C)cccc1C(=O)O` (configuration not stated): 166 to 168 °C.
Next, `CCOC(=O)COc1cc2c(c(Cl)c1Cl)C(=O)C(c1ccc(Cl)cc1)C2` (configuration not stated): 160 °C; `CN(c1cccc2cc(C3=NCC4(CCN(CCO)CC4)S3)[nH]c12)S(=O)(=O)c1cccs1`: 214 °C; `Cc1cc(C(=N)NO)cc(C)c1OCCCc1ccco1`: 100 to 101 °C.
For `O=C(Cc1cnoc1-c1ccccc1)Nc1nc(-c2ccc(Cl)cc2)cs1`, the melting point lay in the range of 210 to 211 °C.
The same measure for `NC(CF)C(=O)c1ccccc1` (configuration not stated): 40 to 42 °C; for `CC1CN(c2nnc(N3CC(C)OC(C)C3)c3cc(-c4ccccc4)ncc23)CC(C)O1` (configuration not stated): 248 to 250 °C; for `C[C@]1(COc2ccc(N3CCN(C(=O)OCc4ccc(Cl)cc4)CC3)cc2)Cn2cc([N+](=O)[O-])nc2O1`: 184 to 188 °C.
The compound `COCCN1CCc2ccc(Nc3ncc(Cl)c(Nc4ccc(N5CCOCC5)cc4OCCC#N)n3)cc2CC1` showed a melting point of 91 to 96 °C.
Next, `CCCCc1cc(=O)c(C(=O)OCC)cn1Cc1ccc(-c2ccccc2-c2nnn[nH]2)cc1`: 119 to 120 °C.
Compound `OCC(O)(C(F)(F)F)C(F)(F)F` registered a melting point of 47 °C.
Regarding `Cc1cccc(-c2sc3ccc(C(F)(F)F)cc3c2O)c1`, the melting point was 124 to 126 °C.
Next, `Cc1cc(-c2ccccc2)nn1C(C)(C)C(=O)N(C)C`: 123 to 125 °C; `Cc1ccccc1C(=O)Nc1ccc2oc3c(c2c1)CCCC3`: 209 to 210 °C.
Next, `COc1ccc(C=CC(=O)C=Cc2ccc(OC)cc2OC)c(OC)c1`: 138 to 140 °C; `CCCNC(=S)NCCCCn1c(-c2ccccc2)nc2c(N)nc3ccccc3c21`: 113 to 116 °C.
As for `CCOC(=O)COc1cc2c(c(Cl)c1Cl)C(=O)C(CC)=C2`, the melting point was 141 to 143 °C.
`Oc1ccc(-c2nc3ccc(O)cc3s2)cc1` registered a melting point of 284 to 286 °C.
The same measure for `Cc1ccc2c(c1)C1CN(CCCC(=O)c3ccc(F)cc3)CCC1N2C` (configuration not stated): 140 to 145 °C; for `Nc1sc2c(c1C(=O)c1cccc(C(F)(F)F)c1)CCN(CCCc1ccccc1)C2`: 176 to 178 °C; for `COC(=O)N(C)c1ccc(OCc2nc3ccccc3s2)cc1`: 85 to 87 °C.
Regarding `Cc1ccc(S(=O)(=O)OC2COc3ccc4ncccc4c3C2)cc1` (configuration not stated), the melting point was 168 to 170 °C.
The same measure for `COc1cc(C)cc(C(=O)NC(C)P(=O)(O)O)c1C1=CC(=O)c2c(O)cccc2C1=O` (configuration not stated): > 300 °C; for `O=C(/C=C/[C@@H]1[C@H]2CC(=O)O[C@H]2C[C@H]1OC(=O)c1ccccc1)CCc1ccccc1`: 119 to 120 °C.
`C=CC[C@H](C(N)=O)[C@@H](CC(C)C)C(=O)NC1C(=O)N(C)c2ccccc2-c2ccccc21` (some centres not stated) returned a melting point of 137 to 145 °C.
The same measure for `CCOC(=O)c1ccc2occ(-c3ccc(SC)cc3)c2n1`: 88 to 89 °C.
Next, `CCOc1ccc(-c2ccc3c(c2)C=C(C(=O)Nc2ccc(CCl)cc2)CCO3)cc1`: 187 to 189 °C.
On to `CN1CCN(Cc2cccc(-c3ccc(-c4cn([C@H]5CN6CCC5CC6)nn4)s3)c2)CC1`, for which the melting point was determined as 155 °C.
In the case of `CC(=O)c1ccc2sc3ccccc3c2c1`, the melting point lay in the range of 97 to 100 °C.
Regarding `O=C(COc1ccc(NC(=O)OCCO)cc1)OCCOC(=O)COc1ccc(NC(=O)OCCO)cc1`, the melting point fell in the range of 158 to 161 °C.
Next, `CCOP(=O)(Cc1ccc(N(C(=O)c2cc3c(s2)-c2c(SC)sc(C(N)=O)c2CC3)c2ccc(CP(=O)(OCC)OCC)cc2)cc1)OCC`: 262 to 263 °C; `Cc1c(F)c(N2CCNCC2)cc2c1c(=O)c(C(=O)O)cn2-c1ccc(F)cc1F`: 198 to 200 °C.
Take `CC(C)NCc1ccc(Cn2ccc(OCc3ccc(F)cc3F)c(Cl)c2=O)cc1`: the melting point fell in the range of 146 to 151 °C.
Next, `CCCCCCCCC=CCCCCCCCC(=O)Cl`: 73 to 74 °C; `OCc1cccc2c(Cl)c3ccccc3cc12`: 138 to 140 °C; `COc1ccc2c(c1)C(=C1CCN(Cc3ccccc3)CC1)C(=O)N2`: 152 °C.
Next, `CC(C)(C)OC(=O)n1c2ccccc2c(=O)n1Cc1cccc(N)c1`: 155 °C.
`CC(Br)c1ccc(C(=O)c2cccs2)cc1` (configuration not stated) came in with a melting point of 71.1 °C.
`COc1cc(CC(C#N)C(OC)OC)cc(OC)c1Cl` (configuration not stated) had a melting point of 84 °C.
On to `O=C1N(Cc2ccc(C(F)(F)F)o2)c2ccccc2C12COc1cc(OC(F)(F)F)ccc12` (configuration not stated), for which the melting point fell in the range of 78 to 80 °C.
Next, `Nc1nnc(-c2cccc(OC(F)(F)C(F)F)c2)c(N)n1`: 199 to 200 °C.
`CCOC(=O)NCC(=O)O` registered a melting point of 55 to 58 °C.
